In patent publication US8232294B2, “Amino ester derivatives, sailts thereof and methods of use” (Sunshine Lake Pharma Co., Ltd., priority 2009, dated 2012):
Structures can show the parent of a compound that is named as a salt.

Columns and labels:
U87MG tumors = assay: Human U87MG glioblastoma xenograft tumor model; format: in vivo, female nude mice (BALB/cA nu/nu); settings: 21 days; for decrease of mean tumor volume (TGI): Day 21, vs vehicle
Description: In a pilot study, the efficacy of compounds disclosed herein was evaluated in a standard murine model of tumorigenesis. Human tumor cells were generated with human glioblastoma cells (U87MG cells, ATCC) and were grown as subcutaneous tumors in 6-7 week old female nude mice (BALB/cA nu/nu, Shanghai SLAC Laboratory Animal, Co.) (n=10 for vehicle group, n=8 for each dosing group). When tumors reached a volume of 100-200 mm^3, animals were randomly divided into vehicle control (2% HPMC+1% Tween-80 in water) and compound groups. Subsequent administration of compound by oral gavage (10-100 mpk/dose, dissolved in purified water or 2% HPMC+1% Tween-80 in water) begins anywhere from day 0 to day 15 post tumor cell challenge and generally continues with once a day for the duration of the experiment.
(§1) Progression of tumor growth is assessed by tumor volumes and recorded as a function of time. The long (L) and short (W) axes of the subcutaneous tumors were measured with calipers twice weekly, and the tumor volume (TV) calculated as (L×W^2)/2). TGI was calculated from the difference between the median tumor volumes of vehicle-treated and drug-treated mice, expressed as a percentage of the median tumor volume of the vehicle-treated control group, by the following relation:
(§2) Initial statistical analysis is done by repeated measures analysis of variance (RMANOVA). Followed by Scheffe psot hoc testing for multiple comparisons. Vehicle alone (2% HPMC+1% Tween-80, or the like) is the negative control. Compounds disclosed herein were generally active at or less than 100 mpk.

MKN45 tumors = assay: Human MKN45 gastric adenocarcinoma xenograft tumor model; format: in vivo, female nude mice (BALB/cA nu/nu); settings: for decrease of mean tumor volume (TGI): Day 18, vs vehicle
Description: Xenografts were also generated with human gastric tumor cells (MKN45 cells, ATCC) and were grown as subcutaneous tumors in 6-7 week old female nude mice (BALB/cA nu/nu, Shanghai SLAC Laboratory Animal, Co.) (n=10 for vehicle group, n=8 for each dosing group). When tumors reached a volume of 60-150 mm^3, animals were randomly divided into vehicle control (2% HPMC+1% Tween-80 in water) and compound groups. Subsequent administration of compound by oral gavage (10-60 mpk/dose, dissolved in purified water or 2% HPMC+1% Tween-80 in water) begins anywhere from day 0 to day 15 post tumor cell challenge and generally continues with once a day for the duration of the experiment.
as §1, §2

Structure (SMILES) | decrease of mean tumor volume (TGI) (U87MG tumors; 10 mg/kg p.o. QD) [%] | decrease of mean tumor volume (TGI) (U87MG tumors; 30 mg/kg p.o. QD) [%] | decrease of mean tumor volume (TGI) (U87MG tumors; 100 mg/kg p.o. QD) [%] | inhibition of growth of U87MG tumors (U87MG tumors; all doses: 10, 30 and 100 mg/kg p.o. QD) | decrease of mean tumor volume (TGI) (MKN45 tumors; 10 mg/kg p.o. QD, 18 days) [%] | decrease of mean tumor volume (TGI) (MKN45 tumors; 30 mg/kg p.o. QD, 18 days) [%] | decrease of mean tumor volume (TGI) (MKN45 tumors; 60 mg/kg p.o. QD (dosed from days 0-10 and days 13-18)) [%] | inhibition of growth of MKN45 tumors (MKN45 tumors; all doses: 10, 30 and 60 mg/kg p.o. QD, 18 days)
COc1ccc2c(Oc3ccc(NC(=O)c4c(C)n(C[C@@H](C)OC(=O)CN)n(-c5ccccc5)c4=O)cc3F)ccnc2c1 [Example 53, (R)-1-(4-(3-fluoro-4-(7-methoxyquinolin-4-yloxy)phenylcarbamoyl)-5-methyl-3-oxo-2-phenyl-2,3-dihydropyrazol-1-yl)propan-2-yl 2-aminoacetate hydrochloride] | 47 | 76 | 99 | statistically significant, dose-dependent inhibition |  |  |  | 
Cc1c(C(=O)Nc2ccc(Oc3ccnc4cc(OCC5(OC(=O)CN)CC5)ccc34)c(F)c2)c(=O)n(-c2ccccc2)n1C [Example 72, 1-((4-(4-(2,3-dimethyl-5-oxo-1-phenyl-2,5-dihydro-1H-pyrazole-4-carboxamido)-2-fluorophenoxy)quinolin-7-yloxy)methyl)cyclopropyl 2-aminoacetate hydrochloride] |  |  |  |  | 29 | 62 | 87 | statistically significant, dose-dependent inhibition
